Measurements taken from ChEMBL document CHEMBL5303573, “Mapping human microbiome drug metabolism by gut bacteria and their genes” (Nature, 2019).

Columns and labels:
[1] = enterocloster bolteae, 12 h, 2 µM
Description: The drug is tested on Clostridium bolteae strain: ATCCBAA-613 for biotransformation. The drug concentrations were measured before and after a 12-h incubation by liquid-chromatography-coupled mass spectrometry (LC–MS)

[2] = victivallis vadensis, 12 h, 2 µM
Description: The drug is tested on Victivallis vadensis strain: ATCC BAA-548 for biotransformation. The drug concentrations were measured before and after a 12-h incubation by liquid-chromatography-coupled mass spectrometry (LC–MS)

[3] = parabacteroides johnsonii, 12 h, 2 µM
Description: The drug is tested on Parabacteroides johnsonii strain: DSM18315 for biotransformation. The drug concentrations were measured before and after a 12-h incubation by liquid-chromatography-coupled mass spectrometry (LC–MS)

[4] = The drug is tested on Parabacteroides merdae strain: ATCC43184 for biotransformation. The drug concentrations were measured before and after a 12-h incubation by liquid-chromatography-coupled mass spectrometry (LC–MS); conditions: 2 µM
[5] = The drug is tested on Bacteroides finegoldii strain: DSM17565 for biotransformation. The drug concentrations were measured before and after a 12-h incubation by liquid-chromatography-coupled mass spectrometry (LC–MS); conditions: 2 µM
[6] = The drug is tested on Blautia hansenii strain: DSM20583 for biotransformation. The drug concentrations were measured before and after a 12-h incubation by liquid-chromatography-coupled mass spectrometry (LC–MS); conditions: 2 µM
[7] = The drug is tested on Collinsella intestinalis strain: DSM13280 for biotransformation. The drug concentrations were measured before and after a 12-h incubation by liquid-chromatography-coupled mass spectrometry (LC–MS); conditions: 2 µM
[8] = The drug is tested on Anaerotruncus colihominis strain: DSM17241 for biotransformation. The drug concentrations were measured before and after a 12-h incubation by liquid-chromatography-coupled mass spectrometry (LC–MS); conditions: 2 µM
[9] = The drug is tested on Clostridium sporogenes strain: ATCC15579 for biotransformation. The drug concentrations were measured before and after a 12-h incubation by liquid-chromatography-coupled mass spectrometry (LC–MS); conditions: 2 µM
[10] = The drug is tested on Escherichia coli strain: BW25113 for biotransformation. The drug concentrations were measured before and after a 12-h incubation by liquid-chromatography-coupled mass spectrometry (LC–MS); conditions: 2 µM
[11] = bacteroides eggerthii, 12 h, 2 µM
Description: The drug is tested on Bacteroides eggerthii strain: DSM20697 for biotransformation. The drug concentrations were measured before and after a 12-h incubation by liquid-chromatography-coupled mass spectrometry (LC–MS)

[12] = The drug is tested on Edwardsiella tarda strain: ATCC23685 for biotransformation. The drug concentrations were measured before and after a 12-h incubation by liquid-chromatography-coupled mass spectrometry (LC–MS); conditions: 2 µM
[13] = bacteroides fragilis, 12 h, 2 µM
Description: The drug is tested on Bacteroides fragilis strain: DS-208 for biotransformation. The drug concentrations were measured before and after a 12-h incubation by liquid-chromatography-coupled mass spectrometry (LC–MS)

[14] = limosilactobacillus reuteri cf48-3a, 12 h, 2 µM
Description: The drug is tested on Lactobacillus reuteri CF48-3A strain: BEI HM-102 for biotransformation. The drug concentrations were measured before and after a 12-h incubation by liquid-chromatography-coupled mass spectrometry (LC–MS)

[15] = The drug is tested on Providencia stuartii strain: ATCC25827 for biotransformation. The drug concentrations were measured before and after a 12-h incubation by liquid-chromatography-coupled mass spectrometry (LC–MS); conditions: 2 µM
[16] = The drug is tested on Bacteroides pectinophilus strain: ATCC43243 for biotransformation. The drug concentrations were measured before and after a 12-h incubation by liquid-chromatography-coupled mass spectrometry (LC–MS); conditions: 2 µM
[17] = The drug is tested on Clostridium symbiosum strain: ATCC14940 for biotransformation. The drug concentrations were measured before and after a 12-h incubation by liquid-chromatography-coupled mass spectrometry (LC–MS); conditions: 2 µM
[18] = roseburia intestinalis, 12 h, 2 µM
Description: The drug is tested on Roseburia intestinalis strain: L1-82 for biotransformation. The drug concentrations were measured before and after a 12-h incubation by liquid-chromatography-coupled mass spectrometry (LC–MS)

[19] = The drug is tested on Collinsella aerofaciens strain: ATCC25986 for biotransformation. The drug concentrations were measured before and after a 12-h incubation by liquid-chromatography-coupled mass spectrometry (LC–MS); conditions: 2 µM
[20] = The drug is tested on Eubacterium rectale strain: ATCC33656 for biotransformation. The drug concentrations were measured before and after a 12-h incubation by liquid-chromatography-coupled mass spectrometry (LC–MS); conditions: agathobacter rectalis, 2 µM

SMILES | Bacterial Biotransformation [1] | Bacterial Biotransformation [2] | Bacterial Biotransformation [3] | Bacterial Biotransformation [4] | Bacterial Biotransformation [5] | Bacterial Biotransformation [6] | Bacterial Biotransformation [7] | Bacterial Biotransformation [8] | Bacterial Biotransformation [9] | Bacterial Biotransformation [10] | Bacterial Biotransformation [11] | Bacterial Biotransformation [12] | Bacterial Biotransformation [13] | Bacterial Biotransformation [14] | Bacterial Biotransformation [15] | Bacterial Biotransformation [16] | Bacterial Biotransformation [17] | Bacterial Biotransformation [18] | Bacterial Biotransformation [19] | Bacterial Biotransformation [20]
CC(NC(C)(C)C)C(=O)c1cccc(Cl)c1 (centres undefined) [BUPROPION] | Compound NOT metabolized | Compound NOT metabolized | Compound NOT metabolized | Compound metabolized | Compound NOT metabolized | Compound NOT metabolized | Compound NOT metabolized | Compound NOT metabolized | Compound NOT metabolized | Compound metabolized | Compound metabolized | Compound NOT metabolized | Compound NOT metabolized | Compound NOT metabolized | – | – | – | – | – | –
CN1C[C@H](C(=O)N[C@]2(C)O[C@@]3(O)[C@@H]4CCCN4C(=O)[C@H](Cc4ccccc4)N3C2=O)C=C2c3cccc4[nH]cc(c34)C[C@H]21.CN1C[C@H](C(=O)N[C@]2(C)O[C@@]3(O)[C@@H]4CCCN4C(=O)[C@H](Cc4ccccc4)N3C2=O)C=C2c3cccc4[nH]cc(c34)C[C@H]21.O=C(O)C(O)C(O)C(=O)O [ERGOTAMINE TARTRATE] | Compound metabolized | Compound metabolized | Compound metabolized | Compound metabolized | Compound metabolized | Compound metabolized | Compound NOT metabolized | Compound metabolized | Compound metabolized | Compound metabolized | Compound metabolized | Compound metabolized | Compound metabolized | Compound metabolized | Compound metabolized | Compound metabolized | Compound metabolized | Compound NOT metabolized | Compound metabolized | –
CC(=O)O[C@]1(C(C)=O)CC[C@H]2[C@@H]3C=C(Cl)C4=CC(=O)[C@@H]5C[C@@H]5[C@]4(C)[C@H]3CC[C@@]21C [CYPROTERONE ACETATE] | Compound NOT metabolized | Compound NOT metabolized | Compound metabolized | Compound NOT metabolized | Compound NOT metabolized | Compound metabolized | Compound NOT metabolized | Compound metabolized | Compound metabolized | Compound metabolized | Compound metabolized | Compound NOT metabolized | Compound metabolized | Compound NOT metabolized | – | Compound metabolized | Compound NOT metabolized | Compound NOT metabolized | Compound metabolized | –
CN1C(=O)CCS(=O)(=O)C1c1ccc(Cl)cc1 (centres undefined) [CHLORMEZANONE] | Compound NOT metabolized | Compound NOT metabolized | – | – | Compound NOT metabolized | Compound metabolized | Compound NOT metabolized | Compound NOT metabolized | Compound NOT metabolized | Compound NOT metabolized | Compound NOT metabolized | Compound NOT metabolized | Compound NOT metabolized | Compound NOT metabolized | Compound NOT metabolized | Compound NOT metabolized | Compound NOT metabolized | – | Compound NOT metabolized | –
CN(C)CCC=C1c2ccccc2C=Cc2ccccc21 [CYCLOBENZAPRINE] | Compound NOT metabolized | Compound NOT metabolized | – | Compound NOT metabolized | Compound NOT metabolized | Compound metabolized | Compound NOT metabolized | Compound NOT metabolized | – | Compound NOT metabolized | Compound NOT metabolized | Compound NOT metabolized | Compound NOT metabolized | Compound NOT metabolized | Compound NOT metabolized | – | Compound NOT metabolized | – | Compound NOT metabolized | Compound NOT metabolized
CCOc1cc(CC(=O)N[C@@H](CC(C)C)c2ccccc2N2CCCCC2)ccc1C(=O)O [REPAGLINIDE] | Compound metabolized | Compound NOT metabolized | Compound metabolized | Compound NOT metabolized | Compound metabolized | Compound NOT metabolized | Compound NOT metabolized | Compound NOT metabolized | – | – | Compound metabolized | Compound NOT metabolized | – | – | Compound NOT metabolized | Compound NOT metabolized | Compound metabolized | Compound NOT metabolized | Compound metabolized | Compound NOT metabolized
CC(=O)Nc1ccc(OC(C)=O)cc1 [DIACETAMATE] | Compound metabolized | Compound metabolized | Compound metabolized | Compound metabolized | Compound metabolized | Compound NOT metabolized | Compound metabolized | Compound metabolized | Compound metabolized | – | Compound metabolized | Compound metabolized | Compound metabolized | Compound metabolized | Compound metabolized | Compound metabolized | Compound metabolized | Compound metabolized | Compound metabolized | Compound metabolized
CCS(=O)(=O)CCn1c([N+](=O)[O-])cnc1C [TINIDAZOLE] | Compound metabolized | Compound metabolized | Compound metabolized | Compound metabolized | Compound metabolized | Compound metabolized | Compound metabolized | Compound metabolized | Compound metabolized | – | Compound metabolized | – | Compound metabolized | Compound NOT metabolized | Compound NOT metabolized | Compound NOT metabolized | Compound metabolized | Compound metabolized | Compound metabolized | Compound metabolized
Nc1ccc(/N=N/c2ccccc2)c(N)n1 [PHENAZOPYRIDINE] | Compound metabolized | Compound metabolized | Compound metabolized | Compound metabolized | Compound metabolized | Compound metabolized | Compound metabolized | Compound metabolized | Compound metabolized | – | Compound metabolized | – | Compound metabolized | Compound NOT metabolized | Compound NOT metabolized | Compound NOT metabolized | Compound metabolized | Compound metabolized | Compound metabolized | Compound metabolized
